Data published in patent US20220024945A1, “THERAPEUTIC COMPOUNDS AND COMPOSITIONS, AND METHODS OF USE THEREOF” (Genentech, Inc., priority 2017, published 2022).

How the values were obtained:
[1] = system: JAK1-dependent STAT6 phosphorylation downstream of IL-13 stimulation, BEAS-2B cells; assay: JAK1 pathway assay in cell lines: P-STAT6 in BEAS-2B cells + IL13; format: cell-based; conditions: Homo sapiens, BEAS-2B, 1 h, BEAS-2B human bronchial epithelial cells, 1 hr compound preincubation, read-out: P-STAT6 BEAS2B + IL13 IC50
Experimental: JAK1 Pathway Assay in Cell Lines was Carried Out as Follows:
Inhibitor potency (EC50) was determined in cell-based assays designed to measure JAK1 dependent STAT phosphorylation. As noted above, inhibition of IL-4, IL-13, and IL-9 signaling by blocking the Jak/Stat signaling pathway can alleviate asthmatic symptoms in pre-clinical lung inflammation models (Mathew et al., 2001, J Exp Med 193(9): 1087-1096; Kudlacz et. al., 2008, Eur J. Pharmacol 582(1-3): 154-161).
In one assay approach, TF-1 human erythroleukemia cells obtained from the American Type Culture Collection (ATCC; Manassas, Va.) were used to measure JAK1-dependent STAT6 phosphorylation downstream of IL-13 stimulation. Prior to use in the assays, TF-1 cells were starved of GM-CSF overnight in OptiMEM medium (Life Technologies, Grand Island, N.Y.) supplemented with 0.5% charcoal/dextran stripped fetal bovine serum (FBS), 0.1 mM non-essential amino acids (NEAA), and 1 mM sodium pyruvate. The assays were run in 384-well plates in serum-free OptiMEM medium using 300,000 cells per well. In a second assay approach, BEAS-2B human bronchial epithelial cells obtained from ATCC were plated at 100,000 cells per well of a 96-well plate one day prior to the experiment. The BEAS-2B assay was run in complete growth medium (bronchial epithelial basal medium plus bulletkit; Lonza; Basel, Switzerland).
Test compounds were serially diluted 1:2 in DMSO and then diluted 1:50 in medium just before use. Diluted compounds were added to the cells, for a final DMSO concentration of 0.2%, and incubated for 30 m (for the TF-1 assay) or 1 hr (for the BEAS-2B assay) at 37° C. Then, cells were stimulated with human recombinant cytokine at their respective EC90 concentrations, as previously determined for each individual lot. Cells were stimulated with […] (R&D Systems, Minneapolis, Minn.) for 15 m/at 37° C. The TF-1 cell reactions were stopped by the direct addition of 10× lysis buffer (Cell Signaling Technologies, Danvers, Mass.), whereas the BEAS-2B cell incubations were halted by the removal of medium and addition of 1× lysis buffer. The resultant samples were frozen in the plates at −80° C. Compound mediated inhibition of STAT6 phosphorylation was measured in the cell lysates using MesoScale Discovery (MSD) technology (Gaithersburg, Md.). EC50 values were determined as the concentration of compound required for 50% inhibition of STAT phosphorylation relative to that measured for the DMSO control.

[2] = target: isolated recombinant JAK2 kinase domain (Homo sapiens, UniProt O60674); assay: JAK enzyme assay (Caliper LabChip), JAK2 kinase domain; conditions: ATP 25 μM, 0.2 nM JAK2, Morrison tight binding model
Chain of isolated recombinant JAK2 kinase domain (O60674 849-1124 limits assumed): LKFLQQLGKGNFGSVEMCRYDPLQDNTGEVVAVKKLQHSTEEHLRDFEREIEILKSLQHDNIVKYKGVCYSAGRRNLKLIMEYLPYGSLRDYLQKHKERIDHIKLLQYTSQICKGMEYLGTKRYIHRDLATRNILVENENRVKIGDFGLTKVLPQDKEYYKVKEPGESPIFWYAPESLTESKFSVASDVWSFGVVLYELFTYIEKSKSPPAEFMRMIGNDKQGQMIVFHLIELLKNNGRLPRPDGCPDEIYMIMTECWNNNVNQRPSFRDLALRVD
Experimental: JAK Enzyme Assays were Carried Out as Follows:
The activity of the isolated recombinant JAK1 and JAK2 kinase domain was measured by monitoring phosphorylation of a peptide derived from JAK3 ([sequence] fluorescently labeled on the N-terminus with 5-carboxyfluorescein) using the Caliper LabChip® technology (Caliper Life Sciences, Hopkinton, Mass.). […] Reactions were incubated at 22° C. in 384-well polypropylene microtiter plates for 30 minutes and then stopped by addition of 25 μL of an EDTA containing solution (100 mM HEPES buffer (pH 7.2), 0.015% Brij-35, 150 mM EDTA), resulting in a final EDTA concentration of 50 mM. After termination of the kinase reaction, the proportion of phosphorylated product was determined as a fraction of total peptide substrate using the Caliper LabChip® 3000 according to the manufacturer's specifications.

[3] = target: isolated recombinant JAK1 kinase domain (Homo sapiens, UniProt P23458); assay: JAK enzyme assay (Caliper LabChip), JAK1 kinase domain; format: biochemical; conditions: ATP 25 μM; 1.5 nM JAK1; Morrison tight binding model
Chain of isolated recombinant JAK1 kinase domain (P23458 875-1153 limits assumed): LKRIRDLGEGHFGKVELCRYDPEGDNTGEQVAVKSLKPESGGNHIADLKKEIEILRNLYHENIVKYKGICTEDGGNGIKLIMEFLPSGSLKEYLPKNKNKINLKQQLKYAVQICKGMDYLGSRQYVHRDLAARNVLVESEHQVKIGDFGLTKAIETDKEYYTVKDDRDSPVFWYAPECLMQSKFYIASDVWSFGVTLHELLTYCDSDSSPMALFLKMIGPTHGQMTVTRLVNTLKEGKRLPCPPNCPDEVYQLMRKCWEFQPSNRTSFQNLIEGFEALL

SMILES | IC50 [1] | Ki [2] | Ki [3]
CC(C)Sc1ccc(OC(F)F)c(-c2nn(Cc3cn(C4CCN([C@H]5CCOC5)CC4)nn3)cc2NC(=O)c2cnn3cccnc23)c1 (stereo in doubt) [Example 11, N-[3-[2-(difluoromethoxy)-5-isopropylsulfanyl-phenyl]-1-[[1-[1-[rac-(3S)-tetrahydrofuran-3-yl]-4-piperidyl]triazol-4-yl]methyl]pyrazol-4-yl]pyrazolo[1,5-a]pyrimidine-3-carboxamide; formic acid] | 23 nM | 0.49 nM | 0.69 nM
CC(C)Sc1ccc(OC(F)F)c(-c2nn(Cc3cn(C4CCN([C@@H]5CCOC5)CC4)nn3)cc2NC(=O)c2cnn3cccnc23)c1 (stereo in doubt) [Example 12, N-[3-[2-(difluoromethoxy)-5-isopropylsulfanyl-phenyl]-1-[[1-[1-[rac-(3R)-tetrahydrofuran-3-yl]-4-piperidyl]triazol-4-yl]methyl]pyrazol-4-yl]pyrazolo[1,5-a]pyrimidine-3-carboxamide; formic acid] | 22 nM | 0.46 nM | 0.64 nM
O=C(Nc1cn(Cc2cn(C3CCN([C@H]4CCOC4)CC3)nn2)nc1-c1cc(SC2CC2)ccc1OC(F)F)c1cnn2cccnc12 (stereo in doubt) [Example 13, N-[3-[5-cyclopropylsulfanyl-2-(difluoromethoxy)phenyl]-1-[[1-[1-[rac-(3S)-tetrahydrofuran-3-yl]-4-piperidyl]triazol-4-yl]methyl]pyrazol-4-yl]pyrazolo[1,5-a]pyrimidine-3-carboxamide] | 17 nM | 0.36 nM | 0.56 nM
O=C(Nc1cn(Cc2cn(C3CCN([C@@H]4CCOC4)CC3)nn2)nc1-c1cc(SC2CC2)ccc1OC(F)F)c1cnn2cccnc12 (stereo in doubt) [Example 14, N-[3-[5-cyclopropylsulfanyl-2-(difluoromethoxy)phenyl]-1-[[1-[1-[rac-(3R)-tetrahydrofuran-3-yl]-4-piperidyl]triazol-4-yl]methyl]pyrazol-4-yl]pyrazolo[1,5-a]pyrimidine-3-carboxamide] | 13 nM | 0.29 nM | 0.4 nM
O=C(Nc1cn(Cc2cn(C3CCN([C@H]4CCOC4)CC3)nn2)nc1-c1cc(SC2COC2)ccc1OC(F)F)c1cnn2cccnc12 (stereo in doubt) [Example 20, N-[3-[2-(difluoromethoxy)-5-(oxetan-3-ylsulfanyl)phenyl]-1-[[1-[1-[rac-(3S)-tetrahydrofuran-3-yl]-4-piperidyl]triazol-4-yl]methyl]pyrazol-4-yl]pyrazolo[1,5-a]pyrimidine-3-carboxamide; formic acid] | 67 nM | 0.44 nM | 0.66 nM
O=C(Nc1cn(Cc2cn(C3CCN([C@@H]4CCOC4)CC3)nn2)nc1-c1cc(SC2COC2)ccc1OC(F)F)c1cnn2cccnc12 (stereo in doubt) [Example 21, N-[3-[2-(difluoromethoxy)-5-(oxetan-3-ylsulfanyl)phenyl]-1-[[1-[1-[rac-(3R)-tetrahydrofuran-3-yl]-4-piperidyl]triazol-4-yl]methyl]pyrazol-4-yl]pyrazolo[1,5-a]pyrimidine-3-carboxamide] | 57 nM | 0.38 nM | 0.66 nM
O=C(Nc1c[nH]nc1-c1cc(SC2CCOCC2)ccc1OC(F)F)c1cnn2cccnc12 [Example 1, N-[3-[2-(difluoromethoxy)-5-tetrahydropyran-4-ylsulfanyl-phenyl]-1H-pyrazol-4-yl]pyrazolo[1,5-a]pyrimidine-3-carboxamide] | 11 nM | 0.15 nM | 0.4 nM
O=C(Nc1c[nH]nc1-c1cc(SC2CCCCC2)ccc1OC(F)F)c1cnn2cccnc12 [Example 2, N-[3-[5-cyclohexylsulfanyl-2-(difluoromethoxy)phenyl]-1H-pyrazol-4-yl]pyrazolo[1,5-a]pyrimidine-3-carboxamide] | 43 nM | 0.28 nM | 0.67 nM
O=C(Nc1c[nH]nc1-c1cc(SCC(F)(F)F)ccc1OC(F)F)c1cnn2cccnc12 [Example 3, N-[3-[2-(difluoromethoxy)-5-(2,2,2-trifluoroethylsulfanyl)phenyl]-1H-pyrazol-4-yl]pyrazolo[1,5-a]pyrimidine-3-carboxamide] | 10 nM | 0.12 nM | 0.16 nM
CC(CO)Sc1ccc(OC(F)F)c(-c2n[nH]cc2NC(=O)c2cnn3cccnc23)c1 (stereo not drawn) [Example 4, N-[3-[2-(difluoromethoxy)-5-(2-hydroxy-1-methyl-ethyl)sulfanyl-phenyl]-1H-pyrazol-4-yl]pyrazolo[1,5-a]pyrimidine-3-carboxamide] | 35 nM | 0.15 nM | 0.23 nM
O=C(Nc1c[nH]nc1-c1cc(SC(F)(F)F)ccc1OC(F)F)c1cnn2cccnc12 [Example 5, N-[3-[2-(difluoromethoxy)-5-(trifluoromethylsulfanyl)phenyl]-1H-pyrazol-4-yl]pyrazolo[1,5-a]pyrimidine-3-carboxamide] | 6 nM | 0.21 nM | 0.5 nM
CN(C1CCN(C(=O)Cn2cc(NC(=O)c3cnn4cccnc34)c(-c3cc(SC4CCOCC4)ccc3OC(F)F)n2)CC1)C1COC1 [Example 6, N-[3-[2-(difluoromethoxy)-5-tetrahydropyran-4-ylsulfanyl-phenyl]-1-[2-[44-[methyl(oxetan-3-yl)amino]-1-piperidyl]-2-oxo-ethyl]pyrazol-4-yl]pyrazolo[1,5-a]pyrimidine-3-carboxamide] | 278 nM | 2.93 nM | 0.97 nM
O=C(Nc1c[nH]nc1-c1cc(SC2CCCC2)ccc1OC(F)F)c1cnn2cccnc12 [Example 7, N-[3-[5-cyclopentylsulfanyl-2-(difluoromethoxy)phenyl]-1H-pyrazol-4-yl]pyrazolo[1,5-a]pyrimidine-3-carboxamide] | 12 nM | 0.37 nM | 0.76 nM
O=C(Nc1c[nH]nc1-c1cc(SC2CCC2)ccc1OC(F)F)c1cnn2cccnc12 [Example 9, N-[3-[5-cyclobutylsulfanyl-2-(difluoromethoxy)phenyl]-1H-pyrazol-4-yl]pyrazolo[1,5-a]pyrimidine-3-carboxamide] | 7 nM | 0.14 nM | 0.23 nM
CC(C)Sc1ccc(OC(F)F)c(-c2nn(CCO)cc2NC(=O)c2cnn3cccnc23)c1 [Example 10, N-[3-[2-(difluoromethoxy)-5-isopropylsulfanyl-phenyl]-1-(2-hydroxyethyl)pyrazol-4-yl]pyrazolo[1,5-a]pyrimidine-3-carboxamide] | 17 nM | 0.24 nM | 0.58 nM
O=C(Nc1cn(Cc2cn(C3CCN(C4COC4)CC3)nn2)nc1-c1cc(SC2COC2)ccc1OC(F)F)c1cnn2cccnc12 [Example 17, N-[3-[2-(difluoromethoxy)-5-(oxetan-3-ylsulfanyl)phenyl]-1-[[1-[1-(oxetan-3-yl)-4-piperidyl]triazol-4-yl]methyl]pyrazol-4-yl]pyrazolo[1,5-a]pyrimidine-3-carboxamide] | 130 nM | 0.57 nM | 0.81 nM
COC(=O)N1CCN(CC2CCN(C(=O)Cn3cc(NC(=O)c4cnn5cccnc45)c(-c4cc(SC(CF)CF)ccc4OC(F)F)n3)CC2)CC1 [Example 18] | 33 nM | 1.3 nM | 0.4 nM
CSc1ccc(OC(F)F)c(-c2nn(CC(C)(C)O)cc2NC(=O)c2cnn3cccnc23)c1 [Example 19, N-[3-[2-(difluoromethoxy)-5-methylsulfanyl-phenyl]-1-(2-hydroxy-2-methyl-propyl)pyrazol-4-yl]pyrazolo[1,5-a]pyrimidine-3-carboxamide] | 15 nM | 0.48 nM | 0.36 nM
O=C(Nc1cn(CCO)nc1-c1cc(SC(CF)CF)ccc1OC(F)F)c1cnn2cccnc12 [Example 22, N-[3-[2-(difluoromethoxy)-5-[2-fluoro-1-(fluoromethyl)ethyl]sulfanyl-phenyl]-1-(2-hydroxyethyl)pyrazol-4-yl]pyrazolo[1,5-a]pyrimidine-3-carboxamide] | 18 nM | 0.19 nM | 0.32 nM
